Data: ChEMBL document CHEMBL1150142, “New onoceranoid triterpene constituents from Lansium domesticum” (J Nat Prod, 2002)
Activity calls are given as the source filed them. No cut-off for these calls is given here.

assay: Inhibition of trypsin

Activity, inactive:
C=C(C)[C@@H]1CC=C(C)[C@H](CC[C@H]2C(=C)CC[C@H]3C(C)(C)C(=O)CC[C@]23C)[C@@]1(C)CCC(=O)OC
C=C1CC[C@H]2C(C)(C)C(=O)CC[C@]2(C)[C@H]1CC[C@H]1C(C)=CC[C@H]2C(C)(C)[C@@H](O)CC[C@]12C
C=C(C)[C@@H]1CCC(=C)[C@H](CC[C@H]2C(C)=CC[C@@H](C(=C)C)[C@]2(C)CCC(=O)O)[C@@]1(C)CCC(=O)O
C=C(C)[C@@H]1CC=C(C)[C@H](CC[C@H]2C(=C)CC[C@H]3C(C)(C)C(=O)CC[C@]23C)[C@@]1(C)CCC(=O)O
C=C1CC[C@H]2C(C)(C)[C@@H](O)CC[C@]2(C)[C@H]1CC[C@H]1C(C)=CC[C@H]2C(C)(C)C(=O)CC[C@]12C
